Holding throughout (format): binding
Assay [1] addresses T1, Cbk1^251-756-Mob2 (Saccharomyces cerevisiae, UniProt P43563+P53894).
T1 construct: His6-Cbk1^251–756 was co-expressed with GST-Mob2 (full length or 45–287); His6 (N); made in house
T1 sequence (P53894 251-756): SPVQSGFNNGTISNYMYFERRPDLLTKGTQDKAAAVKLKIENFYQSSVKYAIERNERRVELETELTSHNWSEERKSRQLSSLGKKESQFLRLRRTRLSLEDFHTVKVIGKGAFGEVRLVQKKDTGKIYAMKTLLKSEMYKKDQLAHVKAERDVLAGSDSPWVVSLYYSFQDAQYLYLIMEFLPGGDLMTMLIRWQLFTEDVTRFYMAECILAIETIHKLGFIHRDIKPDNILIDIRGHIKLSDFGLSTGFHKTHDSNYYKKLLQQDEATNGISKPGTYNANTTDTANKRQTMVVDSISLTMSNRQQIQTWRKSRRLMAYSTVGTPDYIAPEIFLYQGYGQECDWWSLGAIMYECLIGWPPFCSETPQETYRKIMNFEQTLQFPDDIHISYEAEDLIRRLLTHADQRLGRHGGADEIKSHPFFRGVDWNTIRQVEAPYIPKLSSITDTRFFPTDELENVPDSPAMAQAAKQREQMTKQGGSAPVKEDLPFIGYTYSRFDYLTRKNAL
T1 sequence (P43563 1-287 partner): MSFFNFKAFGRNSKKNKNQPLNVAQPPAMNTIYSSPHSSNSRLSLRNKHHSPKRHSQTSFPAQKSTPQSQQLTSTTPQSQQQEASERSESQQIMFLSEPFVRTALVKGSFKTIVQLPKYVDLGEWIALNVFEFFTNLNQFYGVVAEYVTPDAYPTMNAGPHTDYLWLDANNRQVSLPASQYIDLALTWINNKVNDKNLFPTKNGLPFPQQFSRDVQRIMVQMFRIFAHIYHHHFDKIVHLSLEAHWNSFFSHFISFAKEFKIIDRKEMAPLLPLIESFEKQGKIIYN
The experiment in a line: FP direct titration, Cbk1^251-756-Mob2 (WT). The method, then:
(§1) His6-Cbk1^251–756 was co-expressed with GST-Mob2 (full length or 45–287). Cbk1 kinase domain alone (352–756 or 352–692) was expressed as GST-Cbk1-His6. All constructs were bacterially expressed and purified on a Ni-NTA resin (Qiagen) followed by glutathione Sepharose beads (GE Biosciences). For crystallization, tags were cleaved with TEV protease followed by cation exchange chromatography on a Resource S column. All Cbk1 preparations were subsequently dialyzed into Cbk1 buffer (20 mM Tris-HCl, 150 mM NaCl, 2 mM DTT [pH 8.0]).
(§2) For FP-based binding affinity measurements, different docking peptides (pepAce2: GSGSIIVTTNSANGGYQFP; pepSSD1: TTEQSDFKFP; pepHM: IGYTYSRFDY; pepHM-P: IGYpTYSRFDY) were N-terminally (pepAce2 and pepSSD1) or C-terminally (pepHM and pepHM-P) labeled with carboxyfluorescein (CF) fluorescent dyes.
Change in the FP signal in direct binding affinity measurements was monitored as a function of increasing concentration of protein with a Synergy H4 (BioTek Instruments) plate reader in 384-well plates. The labeled peptides were at 20 nM in 20 mM Tris (pH 8.0), 100 mM NaCl, 0.05% Brij35P, 2 mM DTT. The resulting binding isotherms were fit to a quadratic binding equation. The affinity of the unlabeled peptides was measured in steady-state competition experiments: 20 nM labeled reporter was mixed with protein samples in a concentration to achieve ~60%–80% complex formation. Subsequently, increasing amounts of unlabeled peptide were added, and the FP signal was measured as described earlier for direct titration experiments. The Kd for each unlabeled peptide interaction was determined by fitting the data to a competition binding equation. Titration experiments were carried out in triplicate, and the average FP signal was used for fitting the data with OriginPro 7.

Assay [2] concerns the target T2, Cbk1^251-756(F699A)-Mob2 (Saccharomyces cerevisiae, UniProt P43563+P53894, F699A).
T2 construct: His6-Cbk1^251–756 was co-expressed with GST-Mob2 (full length or 45–287); His6 (N); made in house
Description: biochemical. The procedure:
as §1, §2
(§3) Change in the FP signal in direct binding affinity measurements was monitored as a function of increasing concentration of protein with a Synergy H4 (BioTek Instruments) plate reader in 384-well plates. The labeled peptides were at 20 nM in 20 mM Tris (pH 8.0), 100 mM NaCl, 0.05% Brij35P, 2 mM DTT. […] Subsequently, increasing amounts of unlabeled peptide were added, and the FP signal was measured as described earlier for direct titration experiments. The Kd for each unlabeled peptide interaction was determined by fitting the data to a competition binding equation. […]

Assay [3] concerns the target T3, Cbk1^Δ730–756–Mob2 (Saccharomyces cerevisiae, UniProt P43563+P53894).
T3 construct: His6-Cbk1^251–756 was co-expressed with GST-Mob2 (full length or 45–287); His6 (N); made in house
Description: biochemical. From the text:
ND, not determined. […] (PDF) Click here for additional data file.

In assay [4] the target is T4, Cbk1^251-756(F447A)-Mob2 (Saccharomyces cerevisiae, UniProt P43563+P53894, F447A).
T4 construct: His6-Cbk1^251–756 was co-expressed with GST-Mob2 (full length or 45–287); His6 (N); made in house
Description: biochemical. The method, then:
as §1, §2, §3

Among the data in article PMC4428629, “The Structure of an NDR/LATS Kinase–Mob Complex Reveals a Novel Kinase–Coactivator System and Substrate Docking Mechanism” (PLoS Biology, 2015) are Kd values, retold here.

The structures appear in SMILES notation. Read-outs that look alike come from different tables or passages of the source. Non-standard residues stand in square brackets, D forms with d. Residues, ends and D or L forms follow the SMILES beside them. pT = C[C@@H](OP(=O)(O)O)[C@H](N)C(=O)O

T4 sequence (P53894 251-756 F447A, one chain of several): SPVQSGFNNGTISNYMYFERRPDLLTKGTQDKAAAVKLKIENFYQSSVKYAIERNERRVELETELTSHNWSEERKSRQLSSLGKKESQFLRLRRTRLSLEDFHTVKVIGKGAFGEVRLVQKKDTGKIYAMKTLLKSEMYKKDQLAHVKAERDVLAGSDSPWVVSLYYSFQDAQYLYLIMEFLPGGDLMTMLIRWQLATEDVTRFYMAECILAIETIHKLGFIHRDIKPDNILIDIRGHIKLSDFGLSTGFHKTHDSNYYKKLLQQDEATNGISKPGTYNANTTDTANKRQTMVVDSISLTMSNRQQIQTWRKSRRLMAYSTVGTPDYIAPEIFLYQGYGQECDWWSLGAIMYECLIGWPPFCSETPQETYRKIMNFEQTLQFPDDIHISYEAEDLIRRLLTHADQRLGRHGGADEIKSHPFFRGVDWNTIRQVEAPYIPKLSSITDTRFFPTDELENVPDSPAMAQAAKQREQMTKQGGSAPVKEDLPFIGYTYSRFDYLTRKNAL
T2 sequence (P53894 251-756 F699A, one chain of several): as the sequence (P53894 251-756 F447A, one chain of several) above, with A197F, F449A counted along it

On to `CC[C@H](C)[C@H](NC(=O)[C@H](CO)NC(=O)CNC(=O)[C@H](CO)NC(=O)CN)C(=O)N[C@H](C(=O)N[C@H](C(=O)N[C@H](C(=O)N[C@H](C(=O)N[C@@H](CC(N)=O)C(=O)N[C@@H](CO)C(=O)N[C@@H](C)C(=O)N[C@@H](CC(N)=O)C(=O)NCC(=O)NCC(=O)N[C@@H](Cc1ccc(O)cc1)C(=O)N[C@@H](CCC(N)=O)C(=O)N[C@@H](Cc1ccccc1)C(=O)N1CCC[C@H]1C(=O)O)[C@@H](C)O)[C@@H](C)O)C(C)C)[C@@H](C)CC` [pepAce2] (H-GSGSIIVTTNSANGGYQFP-OH), for which the Kd in assay [1] (CF-labeled peptide 20 nM, Tris pH 8.0, triplicate, read-out: peptide binding affinity (table in Fig 5C)) was 5 µM; in assay [1] (labeled synthetic peptides, Cbk1–Mob2 (S5H Fig), read-out: Kd), roughly 6 µM; in assay [2], 5 µM.

With `CC[C@H](C)[C@H](N)C(=O)NCC(=O)N[C@@H](Cc1ccc(O)cc1)C(=O)N[C@H](C(=O)N[C@@H](Cc1ccc(O)cc1)C(=O)N[C@@H](CO)C(=O)N[C@@H](CCCNC(=N)N)C(=O)N[C@@H](Cc1ccccc1)C(=O)N[C@@H](CC(=O)O)C(=O)N[C@@H](Cc1ccc(O)cc1)C(=O)O)[C@@H](C)OP(=O)(O)O` [pepHM-P] (H-IGY[pT]YSRFDY-OH), the Kd was roughly 6 µM in assay [3] and 33 µM in assay [4].
